The values below come from article PMC8264504, “Identification of Koumine as a Translocator Protein 18 kDa Positive Allosteric Modulator for the Treatment of Inflammatory and Neuropathic Pain” (Frontiers in Pharmacology, 2021).

SMILES strings stand for the structures.

The test system of assay [1] is formalin-induced inflammatory pain model. In words: Formalin test. The conditions noted are these: for phase one nociceptive response: given alone, s.c. It is filed as in vivo, mice. The procedure: The formalin test was assessed as described by Dubuisson and Dennis ([Dubuisson and Dennis, 1977]) with minor modifications. Briefly, mice were allowed to acclimate for at least 30 min in the transparent plastic box before formalin injection. Each animal was injected with 10 μl of 5% formalin into the dorsal surface of the right hindpaw. Mice were then observed at 0–5 min (phase one) and at 11–60 min (phase two) after formalin, and the amount of time spent licking or biting the injected paw was recorded as the nociceptive response. Ro5-4864 or vehicle (5% DMSO) was administered s. c. 30 min prior to the formalin injection, and koumine was administered s. c. 40 min before formalin injection. To determine whether koumine potentiated the anti-inflammatory pain effects of Ro5-4864, koumine or its vehicle was injected 10 min before Ro5-4864 injection. Ro5-4864 was dissolved in DMSO and diluted in sterile physiological saline, and the final concentration of DMSO was 5%. Koumine was dissolved in sterile physiological saline directly. Animals were randomized for treatment and behavioral test were performed in a blinded manner.

Assay [2] has as its target T1, TSPO from rat cerebral cortex (Rattus norvegicus, UniProt P16257).
T1 construct: from tissue; host or cells: rat (SD) cerebral cortex, crude mitochondrial/membrane pellet
The experiment in a line: 3H-PK11195 dissociation kinetics. Format: binding. The procedure: (§1) Briefly, male SD rats (240 ± 10 g) were killed by decapitation, and the cerebral cortices were dissected. The tissues were homogenized in 10 volumes (ml/g) of 50 mM Tris HCl buffer containing 0.32 M sucrose (pH 7.4). The homogenates were centrifuged at 1,000 g for 10 min at 4°C. The resulting pellets were discarded, and the supernatants were centrifuged at 9,000 g for 15 min. The pellets were resuspended in 10 volumes of Tris HCl buffer containing 0.32 M sucrose (pH 7.4) and centrifuged at 13,000 g for 30 min, then resuspended in 10 volumes of Tris HCl buffer and centrifuged again at 13,000 g for 30 min. The final pellets were suspended in Tris HCl buffer and used in the binding assays. Protein concentrations were measured using the BCA Protein Assay Kit (ThermoFisher Scientific) according to the manufacturer’s instructions.
Then, samples were filtered through Filtermat A glass microfiber filters (pretreated with 0.2% polyethylenimine) using a Brandel cell harvester, and the radioactivities were measured at the indicated time points.

Assay [3] concerns TSPO from the rat cerebral cortex. Also noted: method as in Jin, 2014. The settings on record: previous competitive binding assay; ref Jin, 2014; cited from earlier work.
A further assay relates to rat model of CCI. The experiment in a line: Chronic constriction injury (CCI) model, MWT. Format: in vivo. An excerpt:
The rat CCI model of neuropathic pain was produced according to the method described by Bennett and Xie ([Bennett and Xie, 1988]). Adult male SD rats were anesthetized by isoflurane delivered by using the anesthetic machine. The right common sciatic nerve was isolated at the mid-thigh level and loosely ligated using four chromic gut (4–0) ties separated by intervals of 1 mm. For sham surgeries, the right sciatic nerve was exposed using the same procedure, but the nerve was not ligated. On the 9th day after surgery, Ro5-4864 or vehicle (5% DMSO) was administered i. p. 50 min before the measurement of mechanical allodynia, and koumine was administered s. c. 60 min before the measurement of mechanical allodynia. To determine whether koumine potentiated the analgesic effects of Ro5-4864, koumine (0.28 mg/kg, s. c.) or vehicle was injected 10 min before Ro5-4864 (0.0625–1.0 mg/kg, i. p.) injection on day 9 after CCI surgery, and the MWT was determined 50 min after the last injection. Animals were randomized for treatment and behavioral test were performed in a blinded manner. Mechanical allodynia was measured using the procedures described below. Only rats with mechanical withdrawal threshold scores (calculated by CCI ipsilateral paw mechanical withdrawal threshold/contralateral paw mechanical withdrawal threshold) on day 8 after CCI surgery >0.75 were used in the study.
Mechanical allodynia was measured using a commercially available electronic von Frey apparatus (Model 2,390; IITC Life Science Inc., Woodland Hills, CA) as described by Mitrirattanakul ([Mitrirattanakul et al., 2006]) with minor modifications. Rats were placed in a Plexiglas box on a steel mesh floor, and analyses were performed using an electronic von Frey apparatus. Stimulation was applied to the center of the hind paw in an upward motion of the von Frey filament until foot withdrawal occurred, and the withdrawal threshold was automatically recorded. The maximum strength of the filament used for von Frey testing was 55 g. The procedure was repeated three times at approximately 5 min intervals for each hind paw, and the MWT was calculated as the mean of the three latencies.

Assay [4] has as its target T1, TSPO from rat cerebral cortex. The experiment in a line: 3H-PK11195 equilibrium binding in presence of koumine. The procedure:
as §1
After incubation at 4°C for 2 h, the reaction was terminated by the addition of ice-cold 50 mM Tris HCl buffer (pH 7.4) followed by vacuum filtration through Filtermat A glass microfiber filters (pretreated with 0.2% polyethylenimine) using a Brandel cell harvester. The filters were washed rapidly, and radioactivity was determined by liquid scintillation spectrometry.

The next assay has as its target TSPO. Set-up: method as in Awad and Gavish, 1987; Verma et al., 1987. The conditions noted are these: radioligand binding experiment results from literatures, ref Awad and Gavish, 1987, Verma et al.; cited from earlier work.

T1 sequence (P16257 whole entry): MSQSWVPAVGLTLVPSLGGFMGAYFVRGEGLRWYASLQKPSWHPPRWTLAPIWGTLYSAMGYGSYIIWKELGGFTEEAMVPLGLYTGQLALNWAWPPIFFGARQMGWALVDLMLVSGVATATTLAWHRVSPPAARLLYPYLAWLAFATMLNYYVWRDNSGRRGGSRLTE

Consider `C=C[C@@]12CN(C)[C@H]3C[C@]14C(=Nc1ccccc14)[C@H]1C[C@@H]2[C@@H]3CO1` [koumine], for which, in assay [1] (0.4 mg/kg koumine s.c. 10 min before 0.00016–0.02 mg/kg Ro5-4864 s.c.), the “modulation of Ro5-4864-mediated analgesic effect, phase two” value is given as “significantly augment”. Moreover, the “modulation of Ro5-4864-mediated analgesic response, first phase” value in assay [1] (0.4 mg/kg koumine s.c. 10 min before Ro5-4864) is recorded as “did not increase”. In addition, in assay [1], the “phase one nociceptive response” value is “ineffective”. The “significant inhibition of second-phase nociceptive response” value in assay [1] (koumine alone 0.08 and 0.4 mg/kg s.c.) was “not”. The second-phase nociceptive response entry in assay [1] (koumine alone 2.0 and 10 mg/kg s.c. 40 min before formalin) was “significantly inhibited the second-phase nociceptive response”. Moreover, the “dissociation rate of 3H-PK11195 relative to vehicle group” value in assay [2] (in presence of 10^−6 M koumine) was 72%; in assay [2] (in presence of 10^−10 M koumine) it was 81%. Further, in assay [3], the “effect on binding of 3H-PK11195 with TSPO” value is on record as “significantly increased the binding”. Moreover, in the assay on rat model of CCI (0.28 mg/kg koumine s.c. 10 min before 0.0625–0.5 mg/kg Ro5-4864 i.p., day 9), the “modulation of Ro5-4864-mediated antinociceptive activity (MWT)” value is recorded as “significantly augmented”. Besides, the “notable antinociceptive effect on CCI-induced mechanical allodynia (MWT)” value in the assay with rat model of CCI (koumine alone 0.28 mg/kg s.c., day 9) is listed as “not”. In addition, the “CCI-induced mechanical allodynia (MWT)” value in the assay on rat model of CCI (koumine alone 1.4 and 7.0 mg/kg s.c., day 9) is given as “notable antinociceptive effects”. In addition, the “effect on binding of 0.1 nM 3H-PK11195” value in assay [4] (10^−10 M and 10^−6 M koumine only) was “significantly increased the binding”; in assay [4] (all concentrations of koumine, 10^−12–10^−3 M, not dose dependent), “tended to increase the binding”.

Take `CN1C(=O)CN=C(c2ccc(Cl)cc2)c2cc(Cl)ccc21` [Ro5-4864, reference compound]: the “phase two nociceptive response” value in assay [1] (Ro5-4864 alone 0.00016–0.5 mg/kg s.c. 30 min before formalin) is reported as “produced a dose-dependent antinociceptive effect”. The “phase one nociceptive response” value in assay [1] is reported as “produced an antinociceptive effect”. The “CCI-induced mechanical allodynia (MWT)” value in the assay with rat model of CCI (Ro5-4864 alone 0.0625–1.0 mg/kg i.p., 9 days after surgery) is “inhibited CCI-induced mechanical allodynia in a dose-dependent manner”. Also, at TSPO, the Kd was 7.3 ± 0.8 nM.
